Experimental data reported in patent US20110190227A1, “Antagonists of Prostaglandin D2 Receptors” (Amira Pharmaceuticals, Inc., priority 2008, published 2011).

Key:
human DP2 receptor = biological target: T1, human DP2 receptor (Homo sapiens, UniProt Q9Y5Y4); experiment: DP2/CRTH2 radioligand binding assay ([3H]PGD2); conditions: membranes of HEK293 cells expressing recombinant human DP2, 1 nM [3H]PGD2; read-out: hDP2
T1 construct: expressed in transfected cells
T1 sequence (Q9Y5Y4 1-395): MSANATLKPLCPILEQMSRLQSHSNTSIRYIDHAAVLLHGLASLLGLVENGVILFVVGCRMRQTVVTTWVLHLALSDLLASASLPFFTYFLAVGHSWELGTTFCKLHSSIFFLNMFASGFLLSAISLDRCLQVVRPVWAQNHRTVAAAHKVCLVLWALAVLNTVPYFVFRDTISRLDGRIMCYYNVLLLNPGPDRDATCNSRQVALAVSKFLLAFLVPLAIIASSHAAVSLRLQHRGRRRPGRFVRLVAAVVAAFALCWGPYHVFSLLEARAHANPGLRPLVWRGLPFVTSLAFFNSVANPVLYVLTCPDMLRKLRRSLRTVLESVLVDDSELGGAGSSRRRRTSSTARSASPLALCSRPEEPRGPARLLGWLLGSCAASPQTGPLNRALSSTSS
Protocol: The ability of a compound to bind to the human DP2 receptor is assessed via a radioligand binding assay using [^3H]PGD2. HEK293 cells stably expressing recombinant human DP2 are resuspended in 10 mM Hepes, 7.4 containing 1 mM DTT, lysed and centrifuged at 75,000×g to pellet the membranes. The membranes are resuspended in 10 mM Hepes, 7.4 containing 1 mM DTF and 10% glycerol to approximately 5 mg protein/ml. Membranes (2-10 […]) are incubated in 96-well plates with 1 nM [^3H]PGD2 and test compound in Assay Buffer (50 mM Hepes, 10 mM MnCl2, 1 mM EDTA, plus or minus 0.2% human serum albumin, pH 7.4) for 60 minutes at room temperature. The reactions are terminated by rapid filtration through Whatman GF/C glass fibre filter plates. The filter plates were pre-soaked in 0.33% polythylenimine for 30 minutes at room temperature then washed in Wash Buffer (50 mM Hepes, 0.5 M NaCl pH 7.4) prior to harvesting. After harvesting, the filter plates are washed 3 times with 1 ml cold Wash Buffer then dried. Scintillant is then added to the plates and the radioactivity retained on the filters is determined on a Packard TopCount (Perkin Elmer). Specific binding is determined as total radioactive binding minus non-specific binding in the presence of 10 μM PGD2. IC50s were determined using GraphPad prism analysis of drug titration curves.

human DP1 receptor = biological target: T2, human DP1 receptor (Homo sapiens, UniProt Q13258); experiment: DP1 radioligand membrane binding assay ([3H]BWA868C); conditions: human platelet membranes, 2 nM [3H]BWA868C; read-out: hDP1
T2 construct: tissue Biological Specialty Corporation; host or cells: human platelets, membrane preparation
T2 sequence (Q13258 1-359): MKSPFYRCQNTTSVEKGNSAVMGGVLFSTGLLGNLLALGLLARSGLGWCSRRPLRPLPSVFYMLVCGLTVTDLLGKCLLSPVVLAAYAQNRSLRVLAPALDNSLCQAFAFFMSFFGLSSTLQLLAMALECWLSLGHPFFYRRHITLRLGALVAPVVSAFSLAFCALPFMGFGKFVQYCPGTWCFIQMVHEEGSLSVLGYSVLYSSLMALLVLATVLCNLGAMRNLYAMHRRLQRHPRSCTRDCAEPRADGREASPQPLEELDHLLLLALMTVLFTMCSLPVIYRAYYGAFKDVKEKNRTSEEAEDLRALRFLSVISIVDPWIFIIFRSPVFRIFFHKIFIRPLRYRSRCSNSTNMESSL
Protocol: The ability of a compound to bind to the human DP1 receptor was evaluated via a radioligand membrane binding assay using the DP1 selective synthetic ligand [^3H]BWA868C. Packed human platelets (Biological Specialty Corporation), were resuspended in 6 volumes of Hepes/HBSS buffer (10 mM Hepes, 1 mM DTT in Hanks Balanced Salt Solution (HBSS), lysed and centrifuged at 75,000×g to pellet the membranes. Membranes were resuspended in Hepes/HBSS buffer to approximately 12 mg protein/ml. Membranes (20 μg protein/well) are incubated in 96-well plates with 2 nM [^3H]BWA868C and test compound in Assay Buffer (50 mM Hepes, 10 mM MnCl2, 1 mM EDTA, plus or minus 0.2% human serum albumin, pH 7.4) for 60 minutes at room temperature. The reactions are terminated by rapid filtration through Whatman GF/C glass fibre filter plates. The filter plates were pre-soaked in 0.33% polyethylenimine for 30 minutes at room temperature then washed in Wash Buffer (50 mM Hepes, 0.5 M NaCl pH 7.4) prior to harvesting. After harvesting, the filter plates are washed 3 times with 1 ml cold Wash Buffer then dried. Scintillant is then added to the plates and the radioactivity retained on the filters is determined on a Packard TopCount (Perkin Elmer). Specific binding is determined as total radioactive binding minus non-specific binding in the presence of 10 μM BW A868C. IC50s were determined using GraphPad prism analysis of drug titration curves.

IC50 (human DP2 receptor)	IC50 (human DP1 receptor)	SMILES
< 300 nM	> 1000 nM	COc1ccc(CC(=O)O)cc1Oc1ccc(C(F)(F)F)cc1C[S+]([O-])c1ccccc1 (centres unmarked) [Compound 1-10, [3-(2-Benzenesulfinylmethyl-4-trifluoromethyl-phenoxy)-4-methoxy-phenyl]-acetic acid]
< 300 nM	300 to 1000 nM	O=C(O)Cc1cccc(Oc2ccc(Br)cc2CSc2nccs2)c1 [Compound 1-14, {3-[4-Bromo-2-(thiazol-2-ylsulfanylmethyl)-phenoxy]-phenyl}-acetic acid]
< 300 nM	> 1000 nM	Cc1nnc(SCc2cc(Br)ccc2Oc2cccc(CC(=O)O)c2)s1 [Compound 1-15, {3-[4-Bromo-2-(5-methyl-[1,3,4]thiadiazol-2-ylsulfanylmethyl)-phenoxy]-phenyl}-acetic acid]
300 to 1000 nM	300 to 1000 nM	O=C(O)Cc1cccc(Oc2ccc(Br)cc2CSc2ccc3ccccc3n2)c1 [Compound 1-16, {3-[4-Bromo-2-(quinolin-2-ylsulfanylmethyl)-phenoxy]-phenyl}-acetic acid]
300 to 1000 nM	300 to 1000 nM	O=C(O)Cc1cccc(Oc2ccc(Br)cc2CSc2ccccn2)c1 [Compound 1-17, {3-[4-Bromo-2-(pyridin-2-ylsulfanylmethyl)-phenoxy]-phenyl}-acetic acid]
> 1000 nM	> 1000 nM	CN(C)CCSCc1cc(Br)ccc1Oc1cccc(CC(=O)O)c1 [Compound 1-18, {3-[4-Bromo-2-(2-dimethylamino-ethylsulfanylmethyl)-phenoxy]-phenyl}-acetic acid]
< 300 nM		COc1ccc(CC(=O)O)cc1Oc1ccc(-c2cnn(C)c2)cc1CSC(C)C [Compound 1-63, {3-[2-Isopropylsulfanylmethyl-4-(1-methyl-1H-pyrazol-4-yl)-phenoxy]-4-methoxy-phenyl}-acetic acid]
300 to 1000 nM		COc1ccc(CC(=O)O)cc1Oc1ccc(-c2cnn(C)c2)cc1CS(=O)(=O)C(C)C [Compound 1-64, {4-Methoxy-3-[4-(1-methyl-1H-pyrazol-4-yl)-2-(propane-2-sulfonylmethyl)-phenoxy]-phenyl}-acetic acid]
< 300 nM		COc1ccc(CC(=O)O)cc1Cc1ccc(NC(=O)C(C)(C)C)cc1CSC(C)(C)C [Compound 1-107, {3-[2-tert-Butylsulfanylmethyl-4-(2,2-dimethyl-propionylamino)-benzyl]-4-methoxy-phenyl}-acetic acid]

Continued, compound first:

SMILES	IC50 (human DP2 receptor)	IC50 (human DP1 receptor)
COc1ccc(CC(=O)O)cc1Oc1ccc(C(F)(F)F)cc1CSCCc1ccccc1 [Compound 1-1, [4-Methoxy-3-(2-phenethylsulfanylmethyl-4-trifluoromethyl-phenoxy)-phenyl]-acetic acid]	< 300 nM	> 1000 nM
COc1ccc(CC(=O)O)cc1Oc1ccc(C(F)(F)F)cc1CSCC(F)(F)F [Compound 1-2, {4-Methoxy-3-[2-(2,2,2-trifluoro-ethylsulfanylmethyl)-4-trifluoromethyl-phenoxy]-phenyl}-acetic acid]	< 300 nM	> 1000 nM
COc1ccc(CC(=O)O)cc1Oc1ccc(C(F)(F)F)cc1CSC(C)(C)C [Compound 1-3, [3-(2-tert-Butylsulfanylmethyl-4-trifluoromethyl-phenoxy)-4-methoxy-phenyl]-acetic acid]	300 to 1000 nM	> 1000 nM
COc1ccc(CC(=O)O)cc1Oc1ccc(C(F)(F)F)cc1CSc1ccccc1 [Compound 1-4, [4-Methoxy-3-(2-phenylsulfanylmethyl-4-trifluoromethyl-phenoxy)-phenyl]-acetic acid]	< 300 nM	> 1000 nM
COc1ccc(CC(=O)O)cc1Oc1ccc(C(F)(F)F)cc1CS(=O)(=O)CCc1ccccc1 [Compound 1-5, {4-Methoxy-3-[2-(2-phenyl-ethanesulfonylmethyl)-4-trifluoromethyl-phenoxy]-phenyl}-acetic acid]	< 300 nM	> 1000 nM
COc1ccc(CC(=O)O)cc1Oc1ccc(C(F)(F)F)cc1CS(=O)(=O)C(C)(C)C [Compound 1-6, {4-Methoxy-3-[2-(2-methyl-propane-2-sulfonylmethyl)-4-trifluoromethyl-phenoxy]-phenyl}-acetic acid]	> 1000 nM	> 1000 nM
COc1ccc(CC(=O)O)cc1Oc1ccc(C(F)(F)F)cc1CS(=O)(=O)c1ccccc1 [Compound 1-7, [3-(2-Benzenesulfonylmethyl-4-trifluoromethyl-phenoxy)-4-methoxy-phenyl]-acetic acid]	300 to 1000 nM	> 1000 nM
COc1ccc(CC(=O)O)cc1Oc1ccc(C(F)(F)F)cc1C[S+]([O-])CCc1ccccc1 (centres unmarked) [Compound 1-8, {4-Methoxy-3-[2-(2-phenyl-ethanesulfinylmethyl)-4-trifluoromethyl-phenoxy]-phenyl}-acetic acid]	< 300 nM	> 1000 nM
COc1ccc(CC(=O)O)cc1Oc1ccc(C(F)(F)F)cc1C[S+]([O-])C(C)(C)C (centres unmarked) [Compound 1-9, {4-Methoxy-3-[2-(2-methyl-propane-2-sulfinylmethyl)-4-trifluoromethyl-phenoxy]-phenyl}-acetic acid]	> 1000 nM	> 1000 nM
O=C(O)Cc1cccc(Oc2ccc(Br)cc2CSc2ccccc2)c1 [Compound 1-11, [3-(4-Bromo-2-phenylsulfanylmethyl-phenoxy)-phenyl]-acetic acid]	< 300 nM	300 to 1000 nM
O=C(O)Cc1cccc(Oc2ccc(Br)cc2CSCc2ccccc2)c1 [Compound 1-12, [3-(2-Benzylsulfanylmethyl-4-bromo-phenoxy)-phenyl]-acetic acid]	< 300 nM	< 300 nM
O=C(O)Cc1cccc(Oc2ccc(Br)cc2CSCCc2ccccc2)c1 [Compound 1-13, [3-(4-Bromo-2-phenethylsulfanylmethyl-phenoxy)-phenyl]-acetic acid]	< 300 nM	< 300 nM
O=C(O)CSCc1cc(Br)ccc1Oc1cccc(CC(=O)O)c1 [Compound 1-19, [3-(4-Bromo-2-carboxymethylsulfanylmethyl-phenoxy)-phenyl]-acetic acid]	> 1000 nM	> 1000 nM
COc1ccc(CC(=O)O)cc1Oc1ccc(C(=O)c2ccccc2)cc1CSC(C)C [Compound 1-83, [3-(4-Benzoyl-2-isopropylsulfanylmethyl-phenoxy)-4-methoxy-phenyl]-acetic acid]	< 300 nM	
COc1ccc(CC(=O)O)cc1Oc1ccc(NC(=O)C(C)(C)C)cc1COc1ccccc1 [Compound 1-118, {3-[4-(2,2-Dimethyl-propionylamino)-2-phenoxymethyl-phenoxy]-4-methoxy-phenyl}-acetic acid]	300 to 1000 nM	
COc1ccc(CC(=O)O)cc1Oc1ccc(NS(=O)(=O)c2cccc3c(N(C)C)cccc23)cc1CSC(C)(C)C [Compound 1-119, {3-[2-tert-Butylsulfanylmethyl-4-(5-dimethylamino-naphthalene-1-sulfonylamino)-phenoxy]-4-methoxy-phenyl}-acetic acid]	< 300 nM	
